Results as given in publication PMC8821558, “Cryo-EM structures of human bradykinin receptor-Gq proteins complexes” (Nature Communications, 2022).

Tests used:
[1] = molecular target: T1, wild-type human B2R with CryoEM Gq (R183Q, Q209L) (Homo sapiens, UniProt P30411); experiment: Calcium mobilization, CHO cells, WT-B2R & CryoEM-Gq; assay type: cell-based; settings: kallidin-induced calcium mobilization, Mean±S.E.M. from three independent experiments
T1 construct: expressed in transfected cells; host or cells: CHO cells
T1 sequence (P30411 1-391): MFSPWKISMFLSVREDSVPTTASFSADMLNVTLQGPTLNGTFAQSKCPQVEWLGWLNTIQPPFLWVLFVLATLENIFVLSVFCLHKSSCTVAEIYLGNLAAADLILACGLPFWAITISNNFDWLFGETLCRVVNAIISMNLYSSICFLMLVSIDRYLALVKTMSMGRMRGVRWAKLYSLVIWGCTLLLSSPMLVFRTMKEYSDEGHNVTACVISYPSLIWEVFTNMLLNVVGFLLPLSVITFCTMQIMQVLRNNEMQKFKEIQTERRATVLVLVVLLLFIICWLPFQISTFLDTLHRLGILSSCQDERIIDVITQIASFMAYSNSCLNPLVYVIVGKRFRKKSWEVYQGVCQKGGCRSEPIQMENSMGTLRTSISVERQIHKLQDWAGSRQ
Method: (§1) There was a 10xHis tag at the N-terminus of each subunit.
(§2) CHO cells transfected with wild-type or mutated B2R and wild-type or mutated Gq were seeded into 96-well black plates at a density of 30,000 cells per well and incubated for 24 h. Then cells were loaded with reagents from Calcium-5 Assay Kit (Molecular Devices) for 45 min at 37 °C in 5% CO2 according to the manufacturer’s protocol. […] Data were analyzed by GraphPad Prism 5 and presented as Mean ± S.E.M. from three independent experiments.
(§3) Supplementary Table 1 . Calcium mobilization results of WT and mutated
(§4) constructs. Emax and pEC50 values were presented as Mean±S.E.M. from three
(§5) independent experiments. Source data are provided as a Source Data file.

B2R E204A = molecular target: T2, B2R E204A (Homo sapiens, UniProt P30411, E204A); experiment: Calcium mobilization, CHO cells, B2R E204A; assay type: cell-based
T2 construct: expressed in transfected cells; host or cells: CHO cells
Method: as §2
(§6) Supplementary Table 3. […] Emax and
(§7) pEC50 values were presented as Mean±S.E.M. from three independent experiments.
(§8) NA represented not available. Source data are provided as a Source Data file.

B2R F286A = molecular target: T3, B2R F286A (Homo sapiens, UniProt P30411, F286A); experiment: Calcium mobilization, CHO cells, B2R F286A; assay type: cell-based
T3 construct: expressed in transfected cells; host or cells: CHO cells
Method: as §2, §6, §7, §8

B2R S289A = molecular target: T4, B2R S289A (Homo sapiens, UniProt P30411, S289A); experiment: Calcium mobilization, CHO cells, B2R S289A; assay type: cell-based
T4 construct: expressed in transfected cells; host or cells: CHO cells
Method: as §2, §6, §7, §8

[2] = molecular target: T5, wild-type human B2R with wild-type Gq (Homo sapiens, UniProt P30411); experiment: Calcium mobilization, CHO cells, WT-B2R & WT-Gq (Calcium-5 kit, Flexstation 3, ex 485/em 525 nm); assay type: cell-based; settings: kallidin-induced calcium mobilization, Mean±S.E.M. from three independent experiments
T5 construct: expressed in transfected cells; host or cells: CHO cells
Method: as §2
Supplementary Table 1 . Calcium mobilization results of WT and mutated constructs. Emax and pEC50 values were presented as Mean±S.E.M. from three independent experiments. Source data are provided as a Source Data file.
Supplementary Table 3. […] Emax and […]
as §7, §8

B2R W113A = molecular target: T6, B2R W113A (Homo sapiens, UniProt P30411, W113A); experiment: Calcium mobilization, CHO cells, B2R W113A; assay type: cell-based
T6 construct: expressed in transfected cells; host or cells: CHO cells
Method: as §2, §6, §7, §8

B2R D293A = molecular target: T7, B2R D293A (Homo sapiens, UniProt P30411, D293A); experiment: Calcium mobilization, CHO cells, B2R D293A; assay type: cell-based
T7 construct: expressed in transfected cells; host or cells: CHO cells
Method: as §2, §6, §7, §8

B2R Y322A = molecular target: T8, B2R Y322A (Homo sapiens, UniProt P30411, Y322A); experiment: Calcium mobilization, CHO cells, B2R Y322A; assay type: cell-based
T8 construct: expressed in transfected cells; host or cells: CHO cells
Method: as §2, §6, §7, §8

[3] = molecular target: T9, CryoEM B2R (MBP fusion) with CryoEM Gq (R183Q, Q209L) (Homo sapiens, UniProt P30411); experiment: Calcium mobilization, CHO cells, CryoEM-B2R & CryoEM-Gq; assay type: cell-based; settings: kallidin-induced calcium mobilization, Mean±S.E.M. from three independent experiments
T9 construct: HA tag (N); 10xHis tag + TEV site (N); expressed in transfected cells; host or cells: CHO cells
T9 sequence (P30411 29-391): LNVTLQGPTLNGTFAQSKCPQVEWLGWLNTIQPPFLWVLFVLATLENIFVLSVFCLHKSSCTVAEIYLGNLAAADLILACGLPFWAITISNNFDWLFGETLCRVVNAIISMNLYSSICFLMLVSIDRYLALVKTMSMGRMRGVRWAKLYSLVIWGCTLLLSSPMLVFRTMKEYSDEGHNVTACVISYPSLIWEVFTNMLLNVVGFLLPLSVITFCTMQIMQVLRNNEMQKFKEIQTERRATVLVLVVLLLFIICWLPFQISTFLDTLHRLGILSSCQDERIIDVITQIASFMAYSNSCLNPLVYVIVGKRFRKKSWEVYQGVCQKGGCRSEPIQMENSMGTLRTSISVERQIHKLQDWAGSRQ
T9 sequence (P50148 1-359 R183Q/Q209L partner): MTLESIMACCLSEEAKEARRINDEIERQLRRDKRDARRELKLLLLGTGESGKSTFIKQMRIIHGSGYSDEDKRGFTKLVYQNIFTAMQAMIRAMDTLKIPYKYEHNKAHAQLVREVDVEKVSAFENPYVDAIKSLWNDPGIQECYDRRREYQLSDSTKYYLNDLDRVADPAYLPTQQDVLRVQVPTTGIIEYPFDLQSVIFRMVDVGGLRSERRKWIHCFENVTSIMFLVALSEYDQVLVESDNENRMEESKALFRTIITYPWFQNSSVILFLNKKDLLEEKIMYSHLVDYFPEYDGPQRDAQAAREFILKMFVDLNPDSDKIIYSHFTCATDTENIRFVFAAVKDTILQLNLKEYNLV
Method: as §1, §2, §3, §4, §5

B2R F121A = molecular target: T10, B2R F121A (Homo sapiens, UniProt P30411, F121A); experiment: Calcium mobilization, CHO cells, B2R F121A; assay type: cell-based
T10 construct: expressed in transfected cells; host or cells: CHO cells
Method: as §2, §6, §7, §8

B2R T290A = molecular target: T11, B2R T290A (Homo sapiens, UniProt P30411, T290A); experiment: Calcium mobilization, CHO cells, B2R T290A; assay type: cell-based
T11 construct: expressed in transfected cells; host or cells: CHO cells
Method: as §2, §6, §7, §8

B2R D311A = molecular target: T12, B2R D311A (Homo sapiens, UniProt P30411, D311A); experiment: Calcium mobilization, CHO cells, B2R D311A; assay type: cell-based
T12 construct: expressed in transfected cells; host or cells: CHO cells
Method: as §2, §6, §7, §8

B2R I213A = molecular target: T13, B2R I213A (Homo sapiens, UniProt P30411, I213A); experiment: Calcium mobilization, CHO cells, B2R I213A; assay type: cell-based
T13 construct: expressed in transfected cells; host or cells: CHO cells
Method: as §2, §6, §7, §8

B2R Q315A = molecular target: T14, B2R Q315A (Homo sapiens, UniProt P30411, Q315A); experiment: Calcium mobilization, CHO cells, B2R Q315A; assay type: cell-based
T14 construct: expressed in transfected cells; host or cells: CHO cells
Method: as §2, §6, §7, §8

B2R Y201A = molecular target: T15, B2R Y201A (Homo sapiens, UniProt P30411, Y201A); experiment: Calcium mobilization, CHO cells, B2R Y201A; assay type: cell-based
T15 construct: expressed in transfected cells; host or cells: CHO cells
Method: as §2, §6, §7, §8

B2R R297A = molecular target: T16, B2R R297A (Homo sapiens, UniProt P30411, R297A); experiment: Calcium mobilization, CHO cells, B2R R297A; assay type: cell-based
T16 construct: expressed in transfected cells; host or cells: CHO cells
Method: as §2, §6, §7, §8

B2R = settings: cited from earlier work
From the text: The kallikrein-kinin system (KKS) consists of kininogens, kallikrein enzymes, kinins, type 1 and type 2 bradykinin receptors (B1R and B2R), which plays important roles in vasodilation, inflammation, vascular permeability, cardioprotection, coagulation, and pain[1]–[4]. Kinins are short-lived peptides of various lengths and they are produced by enzymatic hydrolysis of precursor kininogens. […] Both kinins ...

T7 sequence (P30411 whole entry D293A): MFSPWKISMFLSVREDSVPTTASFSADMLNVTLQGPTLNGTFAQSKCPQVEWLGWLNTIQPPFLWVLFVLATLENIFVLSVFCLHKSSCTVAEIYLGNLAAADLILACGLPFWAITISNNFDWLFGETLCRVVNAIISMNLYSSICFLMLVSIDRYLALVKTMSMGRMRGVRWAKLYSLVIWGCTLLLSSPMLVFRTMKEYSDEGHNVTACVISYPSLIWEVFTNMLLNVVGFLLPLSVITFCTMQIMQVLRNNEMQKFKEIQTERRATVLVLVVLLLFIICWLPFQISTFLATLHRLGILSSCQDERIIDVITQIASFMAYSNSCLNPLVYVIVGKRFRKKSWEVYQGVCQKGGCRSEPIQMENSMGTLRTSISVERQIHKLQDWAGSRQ
T7 sequence (P50148 whole entry partner): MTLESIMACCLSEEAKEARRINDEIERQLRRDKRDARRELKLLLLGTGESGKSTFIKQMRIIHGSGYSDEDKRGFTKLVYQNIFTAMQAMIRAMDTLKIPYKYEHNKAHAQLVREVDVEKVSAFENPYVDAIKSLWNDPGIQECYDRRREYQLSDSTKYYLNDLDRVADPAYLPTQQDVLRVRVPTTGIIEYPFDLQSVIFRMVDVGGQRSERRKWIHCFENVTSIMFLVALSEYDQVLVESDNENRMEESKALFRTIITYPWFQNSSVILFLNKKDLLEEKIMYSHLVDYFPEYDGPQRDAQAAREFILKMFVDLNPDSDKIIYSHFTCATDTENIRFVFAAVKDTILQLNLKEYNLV
T7 sequence (P62873 2-340 partner limits assumed): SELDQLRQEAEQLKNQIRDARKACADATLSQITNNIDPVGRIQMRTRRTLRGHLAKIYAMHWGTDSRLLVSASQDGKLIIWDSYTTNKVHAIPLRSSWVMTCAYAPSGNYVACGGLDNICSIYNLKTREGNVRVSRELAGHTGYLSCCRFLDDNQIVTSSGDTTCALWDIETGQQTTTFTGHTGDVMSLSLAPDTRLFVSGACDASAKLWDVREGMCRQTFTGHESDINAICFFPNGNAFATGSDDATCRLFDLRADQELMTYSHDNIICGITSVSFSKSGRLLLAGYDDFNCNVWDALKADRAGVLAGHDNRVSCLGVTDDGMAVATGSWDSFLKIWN
T7 sequence (P59768 2-68 partner limits assumed): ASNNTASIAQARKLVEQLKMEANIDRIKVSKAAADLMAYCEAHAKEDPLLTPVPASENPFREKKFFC
T14 sequence (P30411 whole entry Q315A): as the sequence (P30411 whole entry D293A) above, with A293D, Q315A counted along it
T14 sequence (P50148 whole entry partner): as the sequence (P50148 whole entry partner) above
T14 sequence (P62873 2-340 partner limits assumed): as the sequence (P62873 2-340 partner limits assumed) above
T14 sequence (P59768 2-68 partner limits assumed): as the sequence (P59768 2-68 partner limits assumed) above
T12 sequence (P30411 whole entry D311A): as the sequence (P30411 whole entry D293A) above, with A293D, D311A counted along it
T12 sequence (P50148 whole entry partner): as the sequence (P50148 whole entry partner) above
T12 sequence (P62873 2-340 partner limits assumed): as the sequence (P62873 2-340 partner limits assumed) above
T12 sequence (P59768 2-68 partner limits assumed): as the sequence (P59768 2-68 partner limits assumed) above
T8 sequence (P30411 whole entry Y322A): as the sequence (P30411 whole entry D293A) above, with A293D, Y322A counted along it
T8 sequence (P50148 whole entry partner): as the sequence (P50148 whole entry partner) above
T8 sequence (P62873 2-340 partner limits assumed): as the sequence (P62873 2-340 partner limits assumed) above
T8 sequence (P59768 2-68 partner limits assumed): as the sequence (P59768 2-68 partner limits assumed) above

Molecule	EC50 [1]	EC50 (B2R E204A)	EC50 (B2R F286A)	EC50 (B2R S289A)	EC50 [2]	EC50 (B2R W113A)	EC50 (B2R D293A)	EC50 (B2R Y322A)	EC50 [3]	EC50 (B2R F121A)	EC50 (B2R T290A)	EC50 (B2R D311A)	EC50 (B2R I213A)	EC50 (B2R Q315A)	EC50 (B2R Y201A)	EC50 (B2R R297A)	antagonist class at B2R (B2R)
NCCCC[C@H](N)C(=O)N[C@@H](CCCN=C(N)N)C(=O)N1CCC[C@H]1C(=O)N1CCC[C@H]1C(=O)NCC(=O)N[C@@H](Cc1ccccc1)C(=O)N[C@@H](CO)C(=O)N1CCC[C@H]1C(=O)N[C@@H](Cc1ccccc1)C(=O)N[C@@H](CCCN=C(N)N)C(=O)O [kallidin]	0.00239 µM	0.013 µM	0.112 µM	0.00138 µM	0.000753 µM	1.05 µM	0.00538 µM	0.0215 µM	0.00667 µM	0.774 µM	0.0237 µM	0.0167 µM	0.11 µM	0.0667 µM	0.0929 µM	0.00162 µM	
D-Arg-Arg-Pro-Hyp-Gly-Thi-Ser-D-Tic-Oic-Arg [icatibant]																	B2R selective antagonist
